Laboratory results published in US20160296658A1, “NOVEL ACTIVE INGREDIENT IN CICATRIZATION AND USE THEREOF” (LABORATOIRES URGO, priority 2007, published 2016).

Tested on: normal human dermal fibroblasts (NHDF) R9PF2
Assay: NHDF proliferation by incorporation of tritiated thymidine
Assay type: cell-based
Conditions: dilution in culture medium at 0.011 mg/mL; 48 hours
Experimental: Type: pool of normal human dermal fibroblasts (NHDF) R9PF2
DMEM (Dulbecco's Modified Eagle Medium, Invitrogen 21969035)
Dressings having the size of the wells, prepared as described previously using the elastomeric masses of examples 1 to 5, and also dilutions of the Sepinov EMT 10 copolymer to 0.011 mg/mL and of potassium sucrose octasulfate to 0.00064 mg/mL, were tested.
Effects on Proliferation:
The fibroblasts were seeded into 12-well plates at low density (60% confluence), and then the cells were treated with the dilutions or pieces of dressings were applied to these plates and kept in place by means of a plug (called “test”). A control without dressing, without dilution but with plug was carried out (called “control”).
The cells were then incubated for 24 hours, 48 hours and 72 hours. For each incubation time, tritiated thymidine ([methyl-3H]-thymidine, Amersham TRK 686 2.5 μCi/mL final concentration) was added for the final 24 hours of incubation and then the DNA of the cells of the cell layers was extracted and purified and the radioactivity incorporated into the DNA was counted using a scintillation counter.
The results obtained are expressed as counts per minute (cpm), then as percentage relative to the control according to the following formula:
%control=(Cpmtest/cmpcontrol)×100 […]

SMILES: O=S(=O)([O-])OC[C@H]1O[C@@](COS(=O)(=O)[O-])(O[C@H]2O[C@H](COS(=O)(=O)[O-])[C@@H](OS(=O)(=O)[O-])[C@H](OS(=O)(=O)[O-])[C@H]2OS(=O)(=O)[O-])[C@@H](OS(=O)(=O)[O-])[C@@H]1OS(=O)(=O)[O-].[K+].[K+].[K+].[K+].[K+].[K+].[K+].[K+] [Potassium sucrose octasulfate, potassium sucrose octasulfate]
- NHDF proliferation, % control: 106 % control
